Legend:
[1] = target: T1, Sterol O-acyltransferase 1 (Rattus norvegicus, UniProt O70536); experiment: In vitro inhibition of acyl coenzyme A:cholesterol acyltransferase (ACAT) in rat hepatic microsomes by using AIV assay.; parameters: species or system Liver
T1 sequence (O70536 whole entry): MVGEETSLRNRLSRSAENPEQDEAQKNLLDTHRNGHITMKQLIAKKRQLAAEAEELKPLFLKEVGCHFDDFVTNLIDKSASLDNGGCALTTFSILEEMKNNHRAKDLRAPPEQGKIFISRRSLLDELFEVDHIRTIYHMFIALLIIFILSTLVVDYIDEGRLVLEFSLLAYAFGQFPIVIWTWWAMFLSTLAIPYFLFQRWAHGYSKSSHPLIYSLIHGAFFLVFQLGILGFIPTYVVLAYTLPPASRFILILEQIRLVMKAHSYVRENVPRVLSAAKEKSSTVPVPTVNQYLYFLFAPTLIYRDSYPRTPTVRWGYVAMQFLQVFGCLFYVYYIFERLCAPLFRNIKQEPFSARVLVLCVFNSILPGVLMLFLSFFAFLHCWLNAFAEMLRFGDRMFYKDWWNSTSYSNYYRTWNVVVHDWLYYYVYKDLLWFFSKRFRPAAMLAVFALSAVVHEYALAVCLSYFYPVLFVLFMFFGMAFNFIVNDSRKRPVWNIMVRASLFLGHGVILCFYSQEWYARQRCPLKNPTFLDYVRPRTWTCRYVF

[2] = target: T2, Sterol O-acyltransferase 1 (Mus musculus, UniProt Q61263); experiment: Inhibition of acyl coenzyme A:cholesterol acyltransferase (ACAT) in J774 Macrophage cell culture by using J774 assay.; format: cell-based
T2 sequence (Q61263 whole entry): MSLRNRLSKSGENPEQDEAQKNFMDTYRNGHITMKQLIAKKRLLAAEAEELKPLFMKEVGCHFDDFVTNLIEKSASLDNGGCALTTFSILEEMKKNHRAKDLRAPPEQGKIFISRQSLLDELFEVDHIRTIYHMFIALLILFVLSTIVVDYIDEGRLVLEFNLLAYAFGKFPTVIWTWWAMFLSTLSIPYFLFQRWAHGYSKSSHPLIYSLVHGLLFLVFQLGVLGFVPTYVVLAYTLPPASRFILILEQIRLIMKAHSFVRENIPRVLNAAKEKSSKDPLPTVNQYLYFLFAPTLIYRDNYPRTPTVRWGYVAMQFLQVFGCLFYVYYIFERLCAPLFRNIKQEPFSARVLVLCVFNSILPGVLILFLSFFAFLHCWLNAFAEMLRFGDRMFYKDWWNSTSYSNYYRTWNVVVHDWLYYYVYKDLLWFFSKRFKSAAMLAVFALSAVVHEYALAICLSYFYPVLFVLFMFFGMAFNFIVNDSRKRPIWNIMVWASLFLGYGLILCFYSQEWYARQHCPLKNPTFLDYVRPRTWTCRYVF

[3] = Partition coefficient (logP); format: physicochemical; conditions: octanol/water
[4] = target: T1, Sterol O-acyltransferase 1; experiment: In vitro inhibition of ACYL CoA:Cholesterol Acyltransferase (ACAT) in rat hepatic microsomes was measured by using AIV assay; parameters: species or system Liver
[5] = target: T1, Sterol O-acyltransferase 1; experiment: In vitro inhibition of Acyl coenzyme A:cholesterol acyltransferase (ACAT) in rat hepatic microsomes was measured by using AIV assay; IA means the compound was inactive; parameters: species or system Liver
[6] = target: T2, Sterol O-acyltransferase 1; experiment: Inhibition of Acyl coenzyme A:cholesterol acyltransferase (ACAT) in J774 Macrophage cell culture was measured by using J774 assay; IA means the compound was inactive; format: cell-based
[7] = target: T2, Sterol O-acyltransferase 1; experiment: Inhibition of Acyl coenzyme A:cholesterol acyltransferase (ACAT) in J774 Macrophage cell culture was measured by using J774 assay; IA means inactive; format: cell-based

| Compound | IC50 ([1]; read-out: IC50) | IC50 [2] | logP [3] | also measured |
| --- | --- | --- | --- | --- |
| CCCCCCCN(CCCCCSc1nc(N)c2c[nH]nc2n1)C(=O)Nc1ccc(F)cc1F | 4.23 µM | 72.5 µM | 5.74 | – |
| CCCCCCN(CCCCCSc1nc2ccccc2n1C)C(=O)Nc1ccc(F)cc1F | 2.49 µM | 3.02 µM | 7.47 | – |
| CCCCCCN(CCOCCSc1nc2c[nH]cnc-2n1)C(=O)NC(C)C | 2 µM | 60 µM | 3.72 | – |
| CCCCCCCN(CCCCCSc1nnc(-c2ccccc2)c(-c2ccccc2)n1)C(=O)Nc1ccc(F)cc1F | 0.44 µM | 10.6 µM | 8.72 | – |
| CCCCCCCN(CCCCCSc1n[nH]c(-c2ccccc2)n1)C(=O)Nc1ccc(F)cc1F | 4 µM | 4.18 µM | 6.78 | – |
| CCCCCCCN(CCCCCSc1nc(-c2ccccc2)c(-c2ccccc2)n1-c1ccccc1)C(=O)Nc1ccc(F)cc1F | – | 54.5 µM | – | IC50 [1]: Not Active |
| CCCCCCCN(CCCCCSc1nc(O)c2ccccc2n1)C(=O)Nc1ccc(F)cc1F | 4 µM | 11 µM | 6.17 | – |
| CCCCCCCN(CCCCCSc1nc(O)cc(Cc2ccccc2)n1)C(=O)NC(C)C | 9.2 µM | 25 µM | 7.4 | – |
| CCCCCCCN(CCCCCSc1nc(-c2ccccc2)c(-c2ccccc2)n1C)C(=O)Nc1ccc(F)cc1F | – | 3.8 µM | – | – |
| CCCCCCCN(CCCCCSc1[nH]cnc2nncc1-2)C(=O)Nc1ccc(F)cc1F | 0.71 µM | 3.31 µM | 5.6 | – |
| CCCCCCCN(CCCCCSc1[nH]cnc2ncnc1-2)C(=O)Nc1ccc(F)cc1F | 0.2 µM | 5.32 µM | 5.32 | – |
| CCCCCCN(CCCCCSc1nc2ccccc2[nH]1)C(=O)Nc1ccc(F)cc1F | 0.5 µM | 3.1 µM | 7.29 | – |
| CCCCCCN(CCCCCSc1nc2cc([N+](=O)[O-])ccc2[nH]1)C(=O)Nc1ccc(F)cc1F | 2 µM | 8.33 µM | 7.19 | – |
| CCCCCCCN(CCCCCOC1=NC(S)=NC1(c1ccccc1)c1ccccc1)C(=O)NC(C)C | – | 2.79 µM | – | IC50 [4]: 0.09 µM |
| CCCCCCN(CCCCCSc1nc2ccccc2o1)C(=O)Nc1ccc(F)cc1F | 51 µM | 3.5 µM | 7.18 | – |
| CCCCCCCN(CCCCCSc1ncc[nH]1)C(=O)Nc1ccc(F)cc1F | – | 5.5 µM | – | – |
| CCCCCCCN(CCCCCSc1[nH]cnc2nncc1-2)C(=O)NC(C)C | 7.13 µM | 4.35 µM | 5 | – |
| CCCCCCN(CCCCCSc1nc2cc(OCC)ccc2s1)C(=O)Nc1ccc(F)cc1F | – | 4.54 µM | 8.46 | IC50 [5]: Not Active |
| CCCCCCN(CCCCCSc1nc2ccc[nH]c-2n1)C(=O)NC(C)C | 7.15 µM | 7.1 µM | 5.62 | – |
| CCCCCCCN(CCCCCSc1ncccn1)C(=O)Nc1ccc(F)cc1F | 3.3 µM | 4.37 µM | 5.41 | – |

| Compound | IC50 ([1]; read-out: IC50) | IC50 [2] | logP [3] | also measured |
| --- | --- | --- | --- | --- |
| CCCCCCN(CCCCCSc1nc2c(=O)n(C)c(=O)n(C)c2[nH]1)C(=O)NC(C)C | 3.6 µM | 1.53 µM | 5.1 | – |
| CCCCCCCN(CCCCCSC1N=C(c2ccccc2)c2ccccc2NC1=O)C(=O)NC(C)C (stereo not drawn) | – | 6.53 µM | 6.99 | – |
| CCCCCCN(CCCCCSc1nc2ccccc2s1)C(=O)Nc1ccc(F)cc1F | 4 µM | 2.73 µM | 7.78 | – |
| CCCCCCN(CCCCCSc1nc2cc(C)ccc2[nH]1)C(=O)Nc1ccc(F)cc1F | 1 µM | 2.06 µM | 7.79 | – |
| CCCCCCN(CCCCCSc1nc2c([nH]1)CCCC2)C(=O)Nc1ccc(F)cc1F | 0.81 µM | 2.58 µM | 6.81 | – |
| CCCCCCN(CCCCCSc1nc2c[nH]cnc-2n1)C(=O)NC(C)C | 23.7 µM | 19.1 µM | 4.66 | – |
| CCCCCCCN(CCCCCSc1ccccn1)C(=O)Nc1ccc(F)cc1F | 4 µM | 4.51 µM | 6.41 | – |
| CCCCCCCN(CCCCCSc1nc(N)c2c[nH]nc2n1)C(=O)NC(C)C | – | – | 5.14 | IC50 [1]: Not Active; IC50 [6]: Not Active |
| CCCCCCN(CCOCCSc1nc2c[nH]cnc-2n1)C(=O)Nc1ccc(F)cc1F | – | – | 4.32 | IC50 [1]: Not Active |
| CCCCCCCN(CCCCCSC1N=C(c2ccccc2)c2ccccc2NC1=O)C(=O)Nc1ccc(F)cc1F (stereo not drawn) | – | 6.96 µM | 7.59 | – |
| CCCCCCCN(CCCCCSc1nc(-c2ccccc2)c[nH]1)C(=O)Nc1ccc(F)cc1F | – | 1.6 µM | – | – |
| CCCCCCN(CCCCCSc1nc2c[nH]cnc-2n1)C(=O)Nc1ccc(F)cc1F | 0.86 µM | – | 5.26 | IC50 [7]: Not Active |
| CCCCCCCN(CCCCCSc1nc[nH]n1)C(=O)Nc1ccc(F)cc1F | 5 µM | 27.3 µM | – | – |
| CCCCCCCN(CCCCCSC1=NC(=O)C(c2ccccc2)(c2ccccc2)N1)C(=O)NC(C)C | 2.79 µM | 2.14 µM | – | – |
| CCCCCCCN(CCCCCSc1nc(N)cc(O)n1)C(=O)NC(C)C | 74 µM | 9.3 µM | 5.61 | – |
| CCCCCCCN(CCCCCSc1nc(-c2ccccc2)cn1-c1ccccc1)C(=O)Nc1ccc(F)cc1F | 7.2 µM | 6.02 µM | – | – |
| CCCCCCN(CCCCCSc1nc2ccc[nH]c-2n1)C(=O)Nc1ccc(F)cc1F | 3.6 µM | 5.47 µM | 6.22 | – |
| CCCCCCCN(CCCCCSc1[nH]cnc2ncnc1-2)C(=O)NC(C)C | 29.7 µM | 4.72 µM | 4.72 | – |
| CCCCCCCN(CCCCCSc1nnc(-c2ccccc2)n1-c1ccccc1)C(=O)Nc1ccc(F)cc1F | 19 µM | 4.8 µM | 8.64 | – |

Source: ChEMBL document CHEMBL1128038, “Acyl CoA:cholesterol acyltransferase (ACAT) inhibitors: ureas bearing heterocyclic groups bioisosteric for an imidazole” (Bioorg Med Chem Lett, 1995)
